Reference: ChEMBL document CHEMBL1137360, “Structure-activity relationships of a novel series of urotensin II analogues: identification of a urotensin II antagonist” (J Med Chem, 2006)
Activity calls are given as the source filed them. The calls are words filed in the database; no cut-off is given here. Positions of bridges follow the written chain, without caps; N, C: chain ends. Non-standard residues stand in square brackets, D forms with d. Residues, ends and D or L forms follow the SMILES beside them. Tyr(3-NO2) = N[C@@H](Cc1ccc(O)c([N+](=O)[O-])c1)C(=O)O; Phe(4-tBu) = CC(C)(C)c1ccc(C[C@H](N)C(=O)O)cc1; Tyr(3-I) = N[C@@H](Cc1ccc(O)c(I)c1)C(=O)O; Oic = O=C(O)[C@@H]1C[C@@H]2CCCC[C@@H]2N1; Phe(4-NH2) = Nc1ccc(C[C@H](N)C(=O)O)cc1; Bta = N[C@@H](Cc1csc2ccccc12)C(=O)O; 2Thi = N[C@@H](Cc1cccs1)C(=O)O; Cha = N[C@@H](CC1CCCCC1)C(=O)O; NMeD = CN[C@@H](CC(=O)O)C(=O)O; Pen = CC(C)(S)[C@H](N)C(=O)O; Aib = CC(C)(N)C(=O)O

Assays:
Urotensin-2 receptor = target: T1, Urotensin-2 receptor (Homo sapiens, UniProt Q9UKP6); test: Displacement of [125I]human urotensin-2 from human GPR14 transfected in CHO cells; type: cell-based; settings: for Log Ki: cho
T1 sequence (Q9UKP6 whole entry): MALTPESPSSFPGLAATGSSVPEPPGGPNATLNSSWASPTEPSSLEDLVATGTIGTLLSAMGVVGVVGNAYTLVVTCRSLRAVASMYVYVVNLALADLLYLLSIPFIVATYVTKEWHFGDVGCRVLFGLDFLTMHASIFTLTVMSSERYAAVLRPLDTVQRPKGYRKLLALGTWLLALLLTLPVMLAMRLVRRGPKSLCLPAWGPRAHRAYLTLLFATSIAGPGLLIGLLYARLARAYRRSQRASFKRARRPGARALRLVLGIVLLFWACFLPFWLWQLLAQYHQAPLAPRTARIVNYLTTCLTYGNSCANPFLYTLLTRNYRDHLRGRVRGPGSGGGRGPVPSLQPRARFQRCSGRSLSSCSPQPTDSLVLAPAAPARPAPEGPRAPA

Rattus norvegicus [1] = species on record: Rattus norvegicus; test: Agonist activity in rat aortic ring contraction assay; type: functional; settings: Aorta
Rattus norvegicus [2] = species on record: Rattus norvegicus; test: Agonist activity in rat aortic ring contraction assay relative to 1 uM phenylephrine; type: functional, Aorta
[3] = target: T2, Urotensin-2 receptor (Rattus norvegicus) (UniProt P49684); test: Antagonist activity against 1 uM human urotensin-2-induced contraction of rat aortic ring; type: functional, tissue-based; settings: Aorta
T2 sequence (whole entry): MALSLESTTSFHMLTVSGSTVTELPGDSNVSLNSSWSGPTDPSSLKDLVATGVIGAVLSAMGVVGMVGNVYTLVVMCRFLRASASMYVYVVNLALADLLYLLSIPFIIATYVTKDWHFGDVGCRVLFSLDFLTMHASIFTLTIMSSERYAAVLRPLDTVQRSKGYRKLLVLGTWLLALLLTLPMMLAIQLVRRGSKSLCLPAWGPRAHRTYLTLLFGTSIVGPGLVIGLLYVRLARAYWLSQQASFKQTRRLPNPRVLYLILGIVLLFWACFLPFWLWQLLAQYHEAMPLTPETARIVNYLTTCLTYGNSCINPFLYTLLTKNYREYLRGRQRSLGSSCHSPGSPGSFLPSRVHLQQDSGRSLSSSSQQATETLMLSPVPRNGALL

Row | Structure (SMILES) | Ki (Urotensin-2 receptor) [nM] | EC50 (Rattus norvegicus [1]) [nM] | Activity [3] | Log Ki (Urotensin-2 receptor) | Activity (Rattus norvegicus [2]) [%] | Activity (Rattus norvegicus [2]; Aorta)
1 | CC(C)[C@H](NC(=O)[C@@H]1CSSC[C@H](NC(=O)[C@@H](N)CC(=O)O)C(=O)N[C@@H](Cc2ccccc2)C(=O)N[C@@H](Cc2c[nH]c3ccccc23)C(=O)N[C@@H](CCCCN)C(=O)N[C@@H](Cc2ccc(O)c([N+](=O)[O-])c2)C(=O)N1)C(=O)O (H-DCFWK[Tyr(3-NO2)]CV-OH; disulfide 2-7) | 2.4 | 9.77 | inactive |  | 95 | 
2 | CC(C)[C@H](NC(=O)[C@@H]1CSSC[C@H](NC(=O)[C@@H](N)CC(=O)O)C(=O)N[C@@H](Cc2ccccc2)C(=O)N[C@@H](Cc2c[nH]c3ccccc23)C(=O)N[C@@H](CCCCN)C(=O)N[C@@H](Cc2ccc(N)cc2)C(=O)N1)C(=O)O (H-DCFWK[Phe(4-NH2)]CV-OH; disulfide 2-7) | 10 | 427 | inactive |  | 97.7 | 
3 | CC(C)[C@H](NC(=O)[C@@H]1CSSC[C@H](NC(=O)C(C)(C)N)C(=O)N[C@@H](Cc2ccccc2)C(=O)N[C@@H](Cc2c[nH]c3ccccc23)C(=O)N[C@@H](CCCCN)C(=O)N[C@@H](Cc2ccc(O)cc2)C(=O)N1)C(=O)O (H-[Aib]CFWKYCV-OH; disulfide 2-7) | 2.24 | 5.62 | inactive |  | 83.9 | 
4 | CN[C@@H](CC(=O)O)C(=O)N[C@H]1CSSC[C@@H](C(=O)N[C@H](C(=O)O)C(C)C)NC(=O)[C@H](Cc2ccc(O)cc2)NC(=O)[C@H](CCCCN)NC(=O)[C@H](Cc2c[nH]c3ccccc23)NC(=O)[C@H](Cc2ccccc2)NC1=O (H-[NMeD]CFWKYCV-OH; disulfide 2-7) | 1.62 | 6.03 | inactive |  | 93.1 | 
5 | CC(C)[C@H](NC(=O)[C@@H]1CSSC[C@H](NC(=O)[C@@H](N)CC(=O)O)C(=O)N[C@@H](Cc2ccc(C(C)(C)C)cc2)C(=O)N[C@@H](Cc2c[nH]c3ccccc23)C(=O)N[C@@H](CCCCN)C(=O)N[C@@H](Cc2ccc(O)cc2)C(=O)N1)C(=O)O (H-DC[Phe(4-tBu)]WKYCV-OH; disulfide 2-7) [listing 2 of 2 here] |  |  |  |  | 76.7 | 
6 | CC(C)[C@H](NC(=O)[C@@H]1CSSC[C@H](NC(=O)[C@@H](N)CC(=O)O)C(=O)N[C@@H](Cc2csc3ccccc23)C(=O)N[C@@H](Cc2c[nH]c3ccccc23)C(=O)N[C@@H](CCCCN)C(=O)N[C@@H](Cc2ccc(O)cc2)C(=O)N1)C(=O)O (H-DC[Bta]WKYCV-OH; disulfide 2-7) [listing 1 of 2 here] |  |  |  |  | 73.8 | 
7 | CC(C)[C@H](NC(=O)[C@@H]1CSSC[C@H](NC(=O)[C@@H](N)CC(=O)O)C(=O)N[C@@H](Cc2ccccc2)C(=O)N[C@@H](Cc2c[nH]c3ccccc23)C(=O)N[C@@H](CCCCN)C(=O)N[C@@H](Cc2ccc(C(C)(C)C)cc2)C(=O)N1)C(=O)O (H-DCFWK[Phe(4-tBu)]CV-OH; disulfide 2-7) | 9.12 | 23.4 | inactive |  | 88.5 | 
8 | CC(C)[C@H](NC(=O)[C@@H]1CSSC[C@H](NC(=O)[C@@H](N)CC(=O)O)C(=O)N[C@@H](Cc2cccs2)C(=O)N[C@@H](Cc2c[nH]c3ccccc23)C(=O)N[C@@H](CCCCN)C(=O)N[C@@H](Cc2ccc(O)cc2)C(=O)N1)C(=O)O (H-DC[2Thi]WKYCV-OH; disulfide 2-7) [listing 2 of 2 here] |  |  |  |  | 94 | 

Continued, in another order:

Row | Ki (Urotensin-2 receptor) [nM] | EC50 (Rattus norvegicus [1]) [nM] | Activity [3] | Log Ki (Urotensin-2 receptor) | Structure (SMILES) | Activity (Rattus norvegicus [2]) [%] | Activity (Rattus norvegicus [2]; Aorta)
9 | 2.95 | 4.79 | inactive |  | CC(C)[C@H](NC(=O)[C@@H]1CSSC[C@H](NC(=O)[C@@H](N)CCC(=O)O)C(=O)N[C@@H](Cc2ccccc2)C(=O)N[C@@H](Cc2c[nH]c3ccccc23)C(=O)N[C@@H](CCCCN)C(=O)N[C@@H](Cc2ccc(O)cc2)C(=O)N1)C(=O)O (H-ECFWKYCV-OH; disulfide 2-7) | 82.1 | 
10 |  | 4.07 |  | -7.63 | CC(C)[C@H](NC(=O)[C@@H]1CSSC[C@H](NC(=O)[C@@H](N)CC(=O)O)C(=O)N[C@@H](Cc2ccc(C(C)(C)C)cc2)C(=O)N[C@@H](Cc2c[nH]c3ccccc23)C(=O)N[C@@H](CCCCN)C(=O)N[C@@H](Cc2ccc(O)cc2)C(=O)N1)C(=O)O (H-DC[Phe(4-tBu)]WKYCV-OH; disulfide 2-7) [listing 1 of 2 here] |  | 
11 | > 10000 | > 10000 | inactive |  | CC(C)[C@H](NC(=O)[C@@H]1CSSC[C@H](NC(=O)[C@@H](N)CC(=O)O)C(=O)N[C@H](CC2CCCCC2)C(=O)N[C@@H](Cc2c[nH]c3ccccc23)C(=O)N[C@@H](CCCCN)C(=O)N[C@@H](Cc2ccc(O)cc2)C(=O)N1)C(=O)O |  | inactive
12 | 19.5 | 355 | inactive |  | CC(C)[C@H](NC(=O)[C@@H]1CSSC[C@H](NC(=O)[C@@H](N)CC(=O)O)C(=O)N[C@@H](CC2CCCCC2)C(=O)N[C@@H](Cc2c[nH]c3ccccc23)C(=O)N[C@@H](CCCCN)C(=O)N[C@@H](Cc2ccc(O)c(I)c2)C(=O)N1)C(=O)O (H-DC[Cha]WK[Tyr(3-I)]CV-OH; disulfide 2-7) | 82.1 | 
13 | 155 | 1910 | inactive |  | CC(C)[C@H](NC(=O)[C@@H]1CSSC(C)(C)[C@H](NC(=O)[C@@H](N)CC(=O)O)C(=O)N[C@@H](CC2CCCCC2)C(=O)N[C@@H](Cc2c[nH]c3ccccc23)C(=O)N[C@@H](CCCCN)C(=O)N[C@@H](Cc2ccc(O)cc2)C(=O)N1)C(=O)O (H-D[Pen][Cha]WKYCV-OH; disulfide 2-7) | 14.8 | 
14 | 1.23 | 5.01 | inactive |  | CC(C)[C@H](NC(=O)[C@@H]1CSSC[C@H](NC(=O)[C@@H](N)CC(=O)O)C(=O)N[C@@H](Cc2ccccc2)C(=O)N[C@@H](Cc2c[nH]c3ccccc23)C(=O)N[C@@H](CCCCN)C(=O)N[C@@H](Cc2ccc(O)cc2)C(=O)N1)C(=O)O (H-DCFWKYCV-OH; disulfide 2-7) | 102.1 | 
15 | 263 | 933 | inactive |  | CC(C)[C@H](NC(=O)[C@@H]1CSSC[C@H](NC(=O)[C@H](C)N)C(=O)N[C@@H](CC2CCCCC2)C(=O)N[C@@H](Cc2c[nH]c3ccccc23)C(=O)N[C@@H](CCCCN)C(=O)N[C@@H](Cc2ccc(O)cc2)C(=O)N1)C(=O)O (H-AC[Cha]WKYCV-OH; disulfide 2-7) | 36.9 | 
16 |  | 288 |  | -8.95 | CC(C)[C@H](NC(=O)[C@@H]1CSSC[C@H](NC(=O)[C@@H](N)CC(=O)O)C(=O)N[C@@H](Cc2csc3ccccc23)C(=O)N[C@@H](Cc2c[nH]c3ccccc23)C(=O)N[C@@H](CCCCN)C(=O)N[C@@H](Cc2ccc(O)cc2)C(=O)N1)C(=O)O (H-DC[Bta]WKYCV-OH; disulfide 2-7) [listing 2 of 2 here] |  | 
17 |  | 8.91 |  | -8.54 | CC(C)[C@H](NC(=O)[C@@H]1CSSC[C@H](NC(=O)[C@@H](N)CC(=O)O)C(=O)N[C@@H](Cc2cccs2)C(=O)N[C@@H](Cc2c[nH]c3ccccc23)C(=O)N[C@@H](CCCCN)C(=O)N[C@@H](Cc2ccc(O)cc2)C(=O)N1)C(=O)O (H-DC[2Thi]WKYCV-OH; disulfide 2-7) [listing 1 of 2 here] |  | 
18 |  | > 10000 |  | < -5 | CC(C)[C@H](NC(=O)[C@@H]1CSSC[C@H](NC(=O)[C@@H](N)CC(=O)O)C(=O)N2[C@@H](C[C@@H]3CCCC[C@@H]32)C(=O)N[C@@H](Cc2c[nH]c3ccccc23)C(=O)N[C@@H](CCCCN)C(=O)N[C@@H](Cc2ccc(O)cc2)C(=O)N1)C(=O)O (H-DC[Oic]WKYCV-OH; disulfide 2-7) |  | 
